Experimental data from patent US11084800B2 (Achillion Pharmaceuticals, Inc., priority 2017, dated 2021).

Target: Human Factor D (Homo sapiens (Human), UniProt P00746)
Assay: Human Factor D Assay
Type: biochemical
Conditions: Factor D inhibition, assay of Example 10; read-out: IC5 (Stars)
Procedure, shortened: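 Thioester substrate Z-L-Lys-SBz (100 μM) with Ellman's reagent DTNB (100 μM) reports activity of 80 nM human serum-derived enzyme, kinetically at 405 nm over 30 min. Compound preincubated 5 min, room temperature, pH 7.5 Tris/1 M NaCl; IC50 by nonlinear fit of rates.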

Chain of Human Factor D (P00746 26-253): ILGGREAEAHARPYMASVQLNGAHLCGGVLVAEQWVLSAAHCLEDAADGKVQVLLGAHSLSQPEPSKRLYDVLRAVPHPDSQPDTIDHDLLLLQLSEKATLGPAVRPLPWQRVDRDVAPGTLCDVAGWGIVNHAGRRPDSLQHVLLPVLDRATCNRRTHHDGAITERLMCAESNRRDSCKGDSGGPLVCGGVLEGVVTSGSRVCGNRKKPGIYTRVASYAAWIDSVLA

| SMILES | IC50 [nM] |
| --- | --- |
| CC(=O)c1nn(CC(=O)N2[C@H](C(=O)Nc3cc(C(C)C)cc(Br)n3)C[C@@]3(C)C[C@@H]23)c2ccc(-c3cnc(C)nc3)cc12 [Compound 541, (1R,3S,5R)-2-(2-(3-acetyl-5-(2-methylpyrimidin-5-yl)-1H-indazol-1-yl)acetyl)-N-(6-bromo-4-isopropylpyridin-2-yl)-5-methyl-2-azabicyclo[3.1.0]hexane-3-carboxamide] | < 1000 |
| CC(=O)c1nn(CC(=O)N2[C@H](C(=O)Nc3cc(CC(C)C)cc(Br)n3)C[C@@]3(C)C[C@@H]23)c2ccc(-c3cnc(C)nc3)cc12 [Compound 542, (1R,3S,5R)-2-(2-(3-acetyl-5-(2-methylpyrimidin-5-yl)-1H-indazol-1-yl)acetyl)-N-(6-bromo-4-isobutylpyridin-2-yl)-5-methyl-2-azabicyclo[3.1.0]hexane-3-carboxamide] | < 1000 |
| CC(=O)c1nn(CC(=O)N2[C@H](C(=O)Nc3cc(C#N)cc(Br)n3)C[C@@]3(C)C[C@@H]23)c2ccc(-c3cnc(C)nc3)cc12 [Compound 543, (1R,3S,5R)-2-(2-(3-acetyl-5-(2-methylpyrimidin-5-yl)-1H-indazol-1-yl)acetyl)-N-(6-bromo-4-cyanopyridin-2-yl)-5-methyl-2-azabicyclo[3.1.0]hexane-3-carboxamide] | < 1000 |
| CC(=O)c1nn(CC(=O)N2[C@H](C(=O)Nc3cc(-c4nnn[nH]4)cc(Br)n3)C[C@@]3(C)C[C@@H]23)c2ccc(-c3cnc(C)nc3)cc12 [Compound 544, (1R,3S,5R)-2-(2-(3-acetyl-5-(2-methylpyrimidin-5-yl)-1H-indazol-1-yl)acetyl)-N-(6-bromo-4-(1H-tetrazol-5-yl)pyridin-2-yl)-5-methyl-2-azabicyclo[3.1.0]hexane-3-carboxamide] | < 1000 |
| CC(=O)c1nn(CC(=O)N2[C@H](C(=O)Nc3cc(CCC(C)C)cc(Br)n3)C[C@@]3(C)C[C@@H]23)c2ccc(-c3cnc(C)nc3)cc12 [Compound 545, (1R,3S,5R)-2-(2-(3-acetyl-5-(2-methylpyrimidin-5-yl)-1H-indazol-1-yl)acetyl)-N-(6-bromo-4-isopentylpyridin-2-yl)-5-methyl-2-azabicyclo[3.1.0]hexane-3-carboxamide] | < 1000 |
| COCc1cc(Br)nc(NC(=O)[C@@H]2C[C@@]3(C)C[C@H]3N2C(=O)Cn2nc(C(C)=O)c3cc(-c4cnc(C)nc4)ccc32)c1 [Compound 546, (1R,3S,5R)-2-(2-(3-acetyl-5-(2-methylpyrimidin-5-yl)-1H-indazol-1-yl)acetyl)-N-(6-bromo-4-(methoxymethyl)pyridin-2-yl)-5-methyl-2-azabicyclo[3.1.0]hexane-3-carboxamide] | < 1000 |
| CC(=O)c1nn(CC(=O)N2[C@H](C(=O)Nc3cc(-c4ccccc4)cc(Br)n3)C[C@@]3(C)C[C@@H]23)c2ccc(-c3cnc(C)nc3)cc12 [Compound 547, (1R,3S,5R)-2-(2-(3-acetyl-5-(2-methylpyrimidin-5-yl)-1H-indazol-1-yl)acetyl)-N-(6-bromo-4-phenylpyridin-2-yl)-5-methyl-2-azabicyclo[3.1.0]hexane-3-carboxamide] | < 1000 |
| CC(=O)c1nn(CC(=O)N2[C@H](C(=O)Nc3cc(CCc4ccccc4)cc(Br)n3)C[C@@]3(C)C[C@@H]23)c2ccc(-c3cnc(C)nc3)cc12 [Compound 548] | < 1000 |
| CCCCc1cc(Br)nc(NC(=O)[C@@H]2C[C@@]3(C)C[C@H]3N2C(=O)Cn2nc(C(C)=O)c3cc(-c4cnc(C)nc4)ccc32)c1 [Compound 549, (1R,3S,5R)-2-(2-(3-acetyl-5-(2-methylpyrimidin-5-yl)-1H-indazol-1-yl)acetyl)-N-(6-bromo-4-butylpyridin-2-yl)-5-methyl-2-azabicyclo[3.1.0]hexane-3-carboxamide] | < 1000 |
| CC(=O)c1nn(CC(=O)N2[C@H](C(=O)Nc3cc(C(F)(F)F)cc(Br)n3)C[C@@]3(C)C[C@@H]23)c2ccc(-c3cnc(C)nc3)cc12 [Compound 550, (1R,3S,5R)-2-(2-(3-acetyl-5-(2-methylpyrimidin-5-yl)-1H-indazol-1-yl)acetyl)-N-(6-bromo-4-(trifluoromethyl)pyridin-2-yl)-5-methyl-2-azabicyclo[3.1.0]hexane-3-carboxamide] | < 1000 |
| CC(=O)c1nn(CC(=O)N2[C@H](C(=O)NCCC(C)(C)C)C[C@@]3(C)C[C@@H]23)c2ccc(-c3cnc(C)nc3)cc12 [Compound 552, (1R,3S,5R)-2-(2-(3-acetyl-5-(2-methylpyrimidin-5-yl)-1H-indazol-1-yl)acetyl)-N-(3,3-dimethylbutyl)-5-methyl-2-azabicyclo[3.1.0]hexane-3-carboxamide] | < 1000 |
| CC(=O)c1nn(CC(=O)N2[C@H](C(=O)N[C@@H](C)c3ccccc3)C[C@@]3(C)C[C@@H]23)c2ccc(-c3cnc(C)nc3)cc12 [Compound 553, (1R,3S,5R)-2-(2-(3-acetyl-5-(2-methylpyrimidin-5-yl)-1H-indazol-1-yl)acetyl)-5-methyl-N-((S)-1-phenylethyl)-2-azabicyclo[3.1.0]hexane-3-carboxamide] | < 1000 |
| CC(=O)c1nn(CC(=O)N2[C@H](C(=O)N[C@@H](C)COC(F)(F)F)C[C@@]3(C)C[C@@H]23)c2ccc(-c3cnc(C)nc3)cc12 [Compound 554, (1R,3S,5R)-2-(2-(3-acetyl-5-(2-methylpyrimidin-5-yl)-1H-indazol-1-yl)acetyl)-5-methyl-N-((S)-1-(trifluoromethoxy)propan-2-yl)-2-azabicyclo[3.1.0]hexane-3-carboxamide] | < 1000 |
| CC(=O)c1nn(CC(=O)N2[C@H](C(=O)Nc3cc(Cc4ccccc4)cc(Br)n3)C[C@@]3(C)C[C@@H]23)c2ccc(-c3cnc(C)nc3)cc12 [Compound 555, (1R,5R)-2-(2-(3-acetyl-5-(2-methylpyrimidin-5-yl)-1H-indazol-1-yl)acetyl)-N-(4-benzyl-6-bromopyridin-2-yl)-5-methyl-2-azabicyclo[3.1.0]hexane-3-carboxamide] | < 1000 |
| CC(=O)c1nn(CC(=O)N2[C@H](C(=O)Nc3cc(-c4ccccc4O)cc(Br)n3)C[C@@]3(C)C[C@@H]23)c2ccc(-c3cnc(C)nc3)cc12 [Compound 556, (1R,3S,5R)-2-(2-(3-acetyl-5-(2-methylpyrimidin-5-yl)-1H-indazol-1-yl)acetyl)-N-(6-bromo-4-(2-hydroxyphenyl)pyridin-2-yl)-5-methyl-2-azabicyclo[3.1.0]hexane-3-carboxamide] | < 1000 |
| CC(=O)c1nn(CC(=O)N2[C@H](C(=O)Nc3cc(COCc4ccccc4)cc(Br)n3)C[C@@]3(C)C[C@@H]23)c2ccc(-c3cnc(C)nc3)cc12 [Compound 557, (1R,3S,5R)-2-(2-(3-acetyl-5-(2-methylpyrimidin-5-yl)-1H-indazol-1-yl)acetyl)-N-(4-6-bromopyridin-2-yl)-5-methyl-2-azabicyclo[3.1.0]hexane-3-carboxamide] | < 1000 |
| CC(=O)c1nn(CC(=O)N2[C@H](C(=O)N[C@H](C)c3ccccc3)C[C@@]3(C)C[C@@H]23)c2ccc(-c3cnc(C)nc3)cc12 [Compound 558, (1R,3S,5R)-2-(2-(3-acetyl-5-(2-methylpyrimidin-5-yl)-1H-indazol-1-yl)acetyl)-5-methyl-N-((R)-1-phenylethyl)-2-azabicyclo[3.1.0]hexane-3-carboxamide] | < 1000 |
| CC(=O)c1nn(CC(=O)N2[C@H](C(=O)NC/C(F)=C(/C)c3ccccc3)C[C@@]3(C)C[C@@H]23)c2ccc(-c3cnc(C)nc3)cc12 [Compound 559, (1R,3S,5R)-2-(2-(3-acetyl-5-(2-methylpyrimidin-5-yl)-1H-indazol-1-yl)acetyl)-N-((E)-2-fluoro-3-phenylbut-2-en-1-yl)-5-methyl-2-azabicyclo[3.1.0]hexane-3-carboxamide] | < 1000 |
| CC(=O)c1cn(CC(=O)N2[C@H](C(=O)NC/C(F)=C(/C)c3ccccc3)C[C@@]3(C)C[C@@H]23)c2cnc(-c3cnc(C)nc3)cc12 [Compound 560] | < 1000 |
| CC(=O)c1nn(CC(=O)N2[C@H](C(=O)NC/C(F)=C(/C)c3ccccc3)C[C@@]3(C)C[C@@H]23)c2c(C)cc(-c3cnc(C)nc3)cc12 [Compound 561, (1R,3S,5R)-2-(2-(3-acetyl-7-methyl-5-(2 methylpyrimidin-5-yl)-1H-indazol-1-yl)acetyl)-N-((E)-2-fluoro-3-phenylbut-2-en-1-yl)-5-methyl-2-azabicyclo[3.1.0]hexane-3-carboxamide] | < 1000 |
| Cc1ncc(-c2ccc3c(c2)c(C(=O)NC(C)C)nn3CC(=O)N2[C@H](C(=O)Nc3nc(Br)ccc3C)C[C@@]3(C)C[C@@H]23)cn1 [Compound 562, 1-(2-((1R,3S,5R)-3-((6-bromo-3-methylpyridin-2-yl)carbamoyl)-5-methyl-2-azabicyclo[3.1.0]hexan-2-yl)-2-oxoethyl)-N-isopropyl-5-(2-methylpyrimidin-5-yl)-1H-indazole-3-carboxamide] | 1000 to 10000 |

Same assay, conditions: Table 8; Factor D 80 nM, substrate Z-L-Lys-SBz; read-out: IC50

| SMILES | IC50 [nM] |
| --- | --- |
| CC(=O)c1nn(CC(=O)N2[C@H](C(=O)NCCCCc3ccccc3)C[C@@]3(C)C[C@@H]23)c2c(C)cc(-c3cnc(C)nc3)cc12 [Compound 538, (1R,3S,5R)-2-(2-(3-acetyl-7-methyl-5-(2-methylpyrimidin-5-yl)-1H-indazol-1-yl)acetyl)-5-methyl-N-(4-phenylbutyl)-2-azabicyclo[3.1.0]hexane-3-carboxamide] | < 1000 |
| CC(=O)c1nn(CC(=O)N2[C@H](C(=O)NCCCCCc3ccccc3)C[C@@]3(C)C[C@@H]23)c2c(C)cc(-c3cnc(C)nc3)cc12 [Compound 539, (1R,3S,5R)-2-(2-(3-acetyl-7-methyl-5-(2-methylpyrimidin-5-yl)-1H-indazol-1-yl)acetyl)-5-methyl-N-(5-phenylpentyl)-2-azabicyclo[3.1.0]hexane-3-carboxamide] | < 1000 |
| CC(=O)c1nn(CC(=O)N2[C@H](C(=O)NCCCCCCc3ccccc3)C[C@@]3(C)C[C@@H]23)c2c(C)cc(-c3cnc(C)nc3)cc12 [Compound 540, (1R,3S,5R)-2-(2-(3-acetyl-7-methyl-5-(2-methylpyrimidin-5-yl)-1H-indazol-1-yl)acetyl)-5-methyl-N-(6-phenylhexyl)-2-azabicyclo[3.1.0]hexane-3-carboxamide] | 1000 to 10000 |
